# Measured values as given in patent publication US11154519B2, “Inhibitors and their uses” (MEDICAL RESEARCH COUNCIL, priority 2015, dated 2021).
# Legend:
# PPP1R15A-PP1 complex = biological target: T1, PPP1R15A-PP1 complex (Homo sapiens, UniProt O75807); experiment: SPR steady-state binding to R15A-PP1 holophosphatase; details: SPR steady-state, MBP-R15A325-636-His captured on bio-PP1c, 10° C.; read-out: R15A (KD)
# T1 construct: cDNAs encoding amino acids 325-636 of PPP1R15A and 340-698 of PPP1R15B were His-tagged and cloned into pMAL-c5x; made in house; host or cells: R15A: E. coli BL21-Gold (pMAL-c5x); PP1γ: Sf9 insect cells (baculovirus, pDW464)
# Experimental: (§1) PPP1R15A^325-636 and PPP1R15B^340-698 were expressed and purified as follows: the cDNAs encoding amino acids 325-636 of PPP1R15A and 340-698 of PPP1R15B were His-tagged and cloned into pMAL-c5x. Recombinant PPP1R15A/B were expressed in BL21-Gold cells and purified by affinity chromatography on a HisTrap HP column (GE Healthcare), followed by a MBPTrap HP column (GE Healthcare). The proteins were analyzed on BOLT SDS-PAGE 4-12% Bis-Tris gels (Life Technologies) stained with SimplyBlue SafeStain (Life Technologies). cDNA encoding for human PP1γ was cloned into the baculovirus transfer vector pDW464 to add a biotin acceptor peptide (BAP). The vector also encodes for the E. coli biotin holoenzyme synthetase (BirA), so that BAP-tagged proteins can be biotinylated in vivo in Spodoptere frugiperda (Sf9) insect cells (Duffy et al., Anal. Biochem., 262, 122-128, 1998). The Bac-to-Bac baculovirus expression system (Life Technologies) was used to generate the recombinant bacmid DNA and Sf9 insect cells were used to amplify the viral stocks Cultures were harvested by centrifuging at 1,200 g for 15 minutes, cell pellets were resuspended in lysis buffer (50 mM Tris pH 7.4, 150 mM NaCl, 0.2% Triton, 5% Glycerol, 1 PiC tablet (Roche) per 50 ml and 0.2 mM PMSF) and followed by gentle sonication. The protein was first purified on a 5 ml HiTrap Q HP column (GE Healthcare) followed by a HiLoad 16/600 Superdex 200 column (GE Healthcare). The positive fractions confirmed by SDS-PAGE and western blot were pooled, concentrate to ˜1 μM and stored at −80° C.
# (§2) A Biacore T200 (GE Healthcare) system was used for all experiments and biotinylated PP1 was captured using a Sensor Chip SA (GE Healthcare, catalog no BR-1005-31). The streptavidin coated surface was activated by 1 min injection with a solution of 50 mM NaOH and 1 M NaCl. Biotin-PP1 was diluted in the running buffer (50 mM Tris pH 7.5, 100 mM NaCl, 0.1 mM EGTA, 1 mM MnCl2, 0.05% Tween 20) and injected at approximately 300 nM concentration directly to streptavidin coated surface for 100 sec or to reach immobilization level of biotin-PP1 corresponding to ˜7000 RU. A blank immobilization was performed for one of the SA sensor chip surface to use as a reference.
# (§3) With minor deviations, the same procedure and conditions were used in all binding experiments. Small molecules were stored as 50 mM stock solutions in 100% DMSO. Prior to determining binding constants, serial dilutions of either 12 or 8 concentrations of the compounds were prepared in the running buffer in a 96-well plate. Prior to each compound dilution series the regulatory subunit, R15A or R15B, was diluted to […] in the running buffer and captured on the biotin-PP1 surface, to form the holophosphatase complex on the sensor chip surface. Then, without regenerating the surface, the compound dilution series was injected onto the surface of the chip Sensorgrams were analyzed using the Biacore T200 evaluation software and the binding constants determined based on a steady-state model. Kinetic experiments are carried out using different concentrations of the compound and their respective equilibrium binding levels determined.
# (§4) Surface Plasmon Resonance (SPR) was used to measure the binding affinity of compounds to the PPP1R15A/B-PP1 phosphatase complex. Biotin acceptor peptide (BAP) was fused to the N-terminus of PP1γ, which enables the biotinylation of the BAP-tagged protein in Sf9 insect cells. After purification the BAP-PP1γ protein was captured on a streptavidin sensor chip (SA-chip, GE healthcare) to a response level of ˜5.000 RU. Using controlled biotinylation enables orientated and uniform immobilization on the sensor chip surface. The PP1γ was then used to capture PPP1R15A/B and form a holophosphatase complex on the surface of the streptavidin chip. This complex can then be used to test binding of compounds. 10 μM PPP1R15A/B protein concentration was used to form the holophosphatase complex during a 80 s injection. […]
# PPP1R15B-PP1 = biological target: T2, PPP1R15B-PP1 (Homo sapiens, UniProt Q5SWA1); experiment: SPR steady-state binding to R15B-PP1 holophosphatase; details: SPR steady-state, MBP-R15B340-698-His captured on bio-PP1c, 10° C.; read-out: R15B (KD)
# T2 construct: cDNAs encoding amino acids 325-636 of PPP1R15A and 340-698 of PPP1R15B were His-tagged and cloned into pMAL-c5x; made in house; host or cells: R15B: E. coli BL21-Gold (pMAL-c5x); PP1γ: Sf9 insect cells (baculovirus, pDW464)
# Experimental: as §1, §2, §3, §4
# R15A or R15B = experiment: Selective binding towards R15A or R15B (based on SPR); parameters: species or system human
# Experimental: In one embodiment, the compounds of formula IB inhibit PPP1R15A and PPP1R15B. Inhibition of PPP1R15A and PPP1R15B can be determined from binding analysis. For example, binding can be analysed using SPR (surface plasmon resonance) to obtain KD values. A PPP1R15A and PPP1R15B inhibitor may be defined as a compound where the difference in KD values between R15A and R15B is no more than about 3 fold.
# Small molecules were stored as 50 mM stock solutions in 100% DMSO. Prior to determining binding constants, serial dilutions of either 12 or 8 concentrations of the compounds were prepared in the running buffer in a 96-well plate. Prior to each compound dilution series the regulatory subunit, MBP-R15A^325-636-His or MBP-R15B^340-698-His, was diluted to 10 μM in the running buffer and captured on the bio-PP1c surface at a flow rate of 30 μl/min for 1 minute to form the holophosphatase complex on the sensor chip surface. This was followed by 1 minute stabilization period, to wash off any unspecific binding. Then, without regenerating the surface, the compound dilution series was injected onto the surface of the chip at a flow rate of 30 μl/min for 1 minute, followed by 2 minutes dissociation time. After each dilution series the surface was regenerated using 3 M NaCl for 90 seconds. After regeneration, SPR responses generally returned to base levels and the bio-PP1c surface was ready for the next compound dilution series. In order to be able to correct for small variations in DMSO concentration between samples, eight solvent samples ranging from 0.06 to 8% DMSO were injected every 50th cycle. The flow cell temperature was 10° C.
# Sensorgrams were analyzed using the Biacore T200 evaluation software and the binding constants determined based on a steady-state model. Kinetic experiments are carried out using different concentrations of the compound and their respective equilibrium binding levels determined.
# HeLa cells [1] = experiment: Cytoprotection against ER stress (tunicamycin), IncuCyte; assay type: cell-based; details: Homo sapiens, 250 ng/ml Tunicamycin, 72 hours, compound 0-20 μM, read-out: Cytoprotection from Tm (compared to GNB)
# Experimental: (§5) HeLa cells (40,000 cells/ml) were plated in a 96-well plate and treated with different concentrations (0-20 μM) of a compound as indicated in the presence of 250 ng/ml Tunicamycin for 72 hours. To monitor cell death 1/2000 dilution of the CellTox green dye (Promega) was added to the media. The growth of the cells was monitored over time and pictures taken every 2 hours with the IncuCyte ZOOM system and analysed by the IncuCyte ZOOM software (Essen BioScience). […] Cytoprotection against ER stress can be measured by a suitable assay. In this instance, cytoprotection was measured in HeLa cells in which ER stress was elicited by the addition of media containing tunicamycin, a drug that blocks N-glycosylation, thereby preventing protein folding and inducing the unfolded protein response. Cell viability was then detected in the presence and absence of a compound listed in Table 1 after a set period of time, by monitoring cell growth over time. Cytoprotection from ER stress was measured in terms of the percentage increase in viable cells (relative to control) after ER stress.
# HeLa cells [2] = experiment: Cell death dose response (CellTox green, IncuCyte); assay type: cell-based; details: for Effect on cell death: IncuCyte, 0-20 μM
# Experimental: Toxicity of the compounds is assessed using Cell viability Counting Kit-8 (Dojindo) or in a Incucyte (Essenbioscience) using both phase contrast and IncuCyte™ Cytotox Green Reagent.
# as §5
# EC50 were extrapolated from dose response experiments on cell death. Data from IncuCyte was plotted and analysed in Prism. The “% of cell death” for each data point. For each concentration there is a % of cell death vs time, the area under the curve was taken and plotted against log conc=>EC50 (analysis in Prism).
# protein synthesis [3] = experiment: Assessment of translation rates (35S-methionine labelling); assay type: cell-based
# Experimental: Cells (90,000 cells/ml) were plated in 12-well plates, treated as indicated, labelled with 100 μCi/mI 35S-methionine (Hartmann Analytic) for 10 minutes at 37° C., washed with ice-cold PBS and lysed in 120 μl Laemmli Buffer. Lysates were boiled at 95° C. for 5 minutes, sonicated and resolved on 4-12% Bolt Bis-Tris Plus Gels (Thermo Fisher Scientific). Gels were then stained with InstantBlue (Expedeon) and analyzed by phosphorimaging and quantified using ImageJ.
# By monitoring translation rates as described above, the activities of R15A, R15B and R15A/B inhibitors can be defined as follows (also shown in FIG. 12). An R15A inhibitor has no effect on translation in unstressed cells but prolongs translation attenuation following stress. A selective R15B inhibitor transiently attenuate protein synthesis because R15A compensates for the inhibition of R15B.
# PP1 = biological target: T3, PP1 (Homo sapiens, UniProt P36873); experiment: SPR binding to PP1 alone; details: SPR steady-state, bio-PP1c surface
# T3 construct: made in house; host or cells: Sf9 insect cells (baculovirus, pDW464)
# mice = experiment: Side effects of Guanabenz: activity of mice after dosing; assay type: in vivo; details: 10 mg/kg oral gavage
# Experimental: To assess whether of a compound of Example 1 had the side effects of Guanabenz, mice (n>3) were gavaged orally with 10 mg/kg of compound or Guanabenz. Their activity was monitored 30 minutes following dosing.
# In humans, the adrenergic agonist activity of Guanabenz has side effects including drowsiness and coma at high doses (A. H. Hall, Ann Intern Med 102; 787-788; 1985). Due to of these side effects, Guanabenz is no longer used in human. It is anticipated that Guanabenz derivatives have the side effects of Guanabenz, associated with alpha-2 adrenergic activity.
# protein synthesis [4] = details: unstressed cells; Tsaytler et al., Science 2011; cited from earlier work
# T2 sequence (Q5SWA1 340-698): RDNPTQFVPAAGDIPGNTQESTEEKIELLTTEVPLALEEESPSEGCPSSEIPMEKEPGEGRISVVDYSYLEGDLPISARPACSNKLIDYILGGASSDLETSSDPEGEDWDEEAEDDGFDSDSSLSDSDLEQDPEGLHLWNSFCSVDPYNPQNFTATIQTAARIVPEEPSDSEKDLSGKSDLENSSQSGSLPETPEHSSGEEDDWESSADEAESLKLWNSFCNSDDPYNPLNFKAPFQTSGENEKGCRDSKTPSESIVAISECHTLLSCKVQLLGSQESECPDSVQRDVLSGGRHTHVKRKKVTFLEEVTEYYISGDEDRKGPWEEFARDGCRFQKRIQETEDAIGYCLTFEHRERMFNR
# T2 sequence (P36873 whole entry partner, the tested form may be a part): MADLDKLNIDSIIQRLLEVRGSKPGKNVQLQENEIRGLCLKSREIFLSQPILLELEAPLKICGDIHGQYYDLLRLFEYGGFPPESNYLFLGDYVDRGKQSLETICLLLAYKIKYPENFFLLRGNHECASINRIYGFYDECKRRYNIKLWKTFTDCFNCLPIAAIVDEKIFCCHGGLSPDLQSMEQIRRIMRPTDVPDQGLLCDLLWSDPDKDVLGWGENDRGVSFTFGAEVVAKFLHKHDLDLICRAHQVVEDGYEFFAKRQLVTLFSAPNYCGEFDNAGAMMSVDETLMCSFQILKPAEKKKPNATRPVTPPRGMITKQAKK
# T1 sequence (O75807 325-636): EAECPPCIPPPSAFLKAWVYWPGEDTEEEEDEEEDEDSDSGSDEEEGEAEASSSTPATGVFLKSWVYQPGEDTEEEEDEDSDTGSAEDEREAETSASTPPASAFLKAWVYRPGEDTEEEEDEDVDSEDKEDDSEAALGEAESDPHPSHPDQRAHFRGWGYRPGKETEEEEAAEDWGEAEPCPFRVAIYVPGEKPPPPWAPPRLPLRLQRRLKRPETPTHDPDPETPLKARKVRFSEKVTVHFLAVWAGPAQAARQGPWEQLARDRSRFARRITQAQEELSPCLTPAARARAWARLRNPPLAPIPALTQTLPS
# T1 sequence (P36873 whole entry partner, the tested form may be a part): as the sequence (P36873 whole entry partner, the tested form may be a part) above
# T3 sequence (P36873 whole entry): as the sequence (P36873 whole entry partner, the tested form may be a part) above
SMILES,Kd (PPP1R15A-PP1 complex) [µM],Kd (PPP1R15B-PP1) [µM],Selective binding towards R15A or R15B (based on SPR) (R15A or R15B),Emax (HeLa cells [1]) [%],"EC50 (HeLa cells [2]; Homo sapiens, area under % cell death vs time curve against log conc, read-out: Effect on cell death ⇒ EC50) [µM]",Effect on cell death (HeLa cells [2]),Effect on translation ⇒ Inhibits (protein synthesis [3]; target(s) concluded to be inhibited),Kd (PP1) [µM],Effect on translation (protein synthesis [3]; 35S-methionine labelling of cells),"protein synthesis rates (protein synthesis [3]; unstressed cells, 10 μM, FIG. 12)",activity of mice 30 minutes following dosing (mice),protein synthesis (protein synthesis [4])
"[H]/N=C(\N)NN=Cc1cnc(Cl)nc1Cl [Compound 2, (E)-2-((2,4-dichloropyrimidin-5-yl)methylene)hydrazine-1-carboximidamide]",46.4 ± 18.3,9.22,R15B (A “selective inhibitor” may be defined as a compound where the difference in KD values between R15A and R15B is greater than 3 fold),0,7.71,Yes,–,–,–,–,–,–
"[H]/N=C(\N)NN=Cc1ccc(F)c(F)c1Cl [Compound 27, (E)-2-(2-chloro-3,4-difluorobenzylidene)hydrazine-1-carboximidamide]",10.6,–,–,57,–,No,R15AB,–,–,–,–,–
"N=C(N)N/N=C/c1cc(Cl)c(Cl)cc1Cl [Compound 4, (E)-2-(2,4,5-trichlorobenzylidene)hydrazine-1-carboximidamide]",0.457 ± 0.13,0.022 ± 0.02,R15AB (A PPP1R15A and PPP1R15B inhibitor may be defined as a compound where the difference in KD values between R15A and R15B is no more than about 3 fold),80,–,No,–,332,–,–,–,–
"[H]/N=C(\N)NN=Cc1cc(F)c(F)cc1Cl [Compound 32, (E)-2-(2-chloro-4,5-difluorobenzylidene)hydrazine-1-carboximidamide]",4.82 ± 0.26,17.3,–,100,–,No,–,–,Persistent,–,–,–
"N=C(N)N/N=C/c1c(Cl)cccc1Cl [Guanabenz, reference compound]",–,–,–,–,–,–,–,–,–,doesn't inhibit protein synthesis in unstressed cell,did not move 30 minutes after dosing,doesn't inhibit protein synthesis in untressed cells
"[H]/N=C(\N)NN=Cc1cccc(F)c1Cl [Compound 25, (E)-2-(2-chloro-3-fluorobenzylidene)hydrazine-1-carboximidamide]",6.18 ± 3.31,9.22 ± 0.19,R15AB (A PPP1R15A and PPP1R15B inhibitor may be defined as a compound where the difference in KD values between R15A and R15B is no more than about 3 fold),54,–,No,–,3.65,–,–,–,–
